Results published in patent publication US20050287666A1, “Cell culture medium comprising transition metals or trace elements” (priority 2004, published 2005).
Entries after “also recorded” stand apart in the source; their conditions may differ. Where two headings read alike, the source gives them in different places.

Legend:
Type in all cases: cell-based, human
PER.C6 cells [1] = assay: Lag in the subsequent culture when PER.C6 cells are passaged from overgrown high-density cultures in AEM; conditions: for high density culturing / passaging of cells from high-density cultures: PER.C6 cells in AEM, cultures above 2×10^6 vc/mL
PER.C6 cells [2] = assay: PER.C6 growth in AEM supplemented with TEM, TEM without zinc or zinc alone (Example 1 and preliminary work); conditions: zinc evaluated separately
Source text: A trace element mix (TEM) was created and used in various test protocols. […] The following media supplements were compared: • 1) TEM. • 2) TEM without zinc. • 3) Zinc alone at the TEM concentration. • 4) These supplements were each added to individual bottles of AEM at 1×, 3×, 5× and 10×. The conditions were then monitored by observing PER.C6 growth. […] Two of the components in TEM, Cu and Ni would individual be toxic at the 10× levels. These levels of trace elements would have been observed in the preliminary variable observations. Thus it was decided that total trace element concentrations were not responsible for the deleterious effects observed.

PER.C6 cells [3] = assay: PER.C6 cell growth after adding cobalt, nickel and manganese to AEM supplemented with TEM-2 (Example 5, FIG. 04)
PER.C6 cells [4] = assay: PER.C6 cell growth in AEM with single trace elements added at low concentration (Example 2, FIG. 01); conditions: for effect on PER.C6 cell growth: element added singly to AEM: nickel (nitrate) 0.004 mg/L, cobalt (chloride) 0.001 mg/L, manganese (chloride) 0.028 mg/L, copper (chloride) 0.013 mg/L, compared to control

[Zn] [Zinc]
high density culturing / passaging of cells from high-density cultures (PER.C6 cells [1]): consistent high density culturing | lag in the subsequent culture (PER.C6 cells [1]; passaged from overgrown day 5 cultures, AEM): did not lag | overall cell growth (PER.C6 cells [2]): improve overall cell growth

[Cl][Co][Cl] [cobalt, cobalt (chloride)]
effect on PER.C6 cell growth performance (PER.C6 cells [3]): no effect

[Cl][Cu][Cl] [copper, copper (chloride)]
high density culturing / passaging of cells from high-density cultures (PER.C6 cells [1]): does not improve passaging | duration of log growth phase (PER.C6 cells [4]; 0.013 mg/L copper in AEM, all other cultures entered lag phase after day four or five): continued in the log growth phase through day six | effect on PER.C6 cell growth (PER.C6 cells [4]): best results of all conditions tested; also recorded: extends log phase growth | effect on PER.C6 cell growth (PER.C6 cells [4]; listed as Copper): increase growth

[Cl][Mn][Cl] [manganese, manganese (chloride)]
effect on PER.C6 cell growth performance (PER.C6 cells [3]; added to AEM supplemented with TEM-2, same concentrations as in example 2): no effect | effect on PER.C6 cell growth (PER.C6 cells [4]): inhibits; also recorded: individually toxic
